The source of these data is patent publication US9943554B2, “Compositions and methods relating to solenopsins and their uses in treating neurological disorders and enhancing physical performance” (priority 2006, dated 2018).

The target of series [1] is T1, monoamine (NE) transporters (Homo sapiens, UniProt P23975).
T1 construct: CEREP
In words: CEREP screen: NE transporter. The series is classed as binding. Details: dose or concentration left out as unconfirmed. As to the method: (§1) Recent CEREP screen indicated for SPI-001 ([…]) that it inhibited muscarinic receptors (M1, M2 and M3), Na+ channels and monoamine (NE, DA, and 5-HT) transporters with high affinity (˜90%).

The target of series [2] is T2, muscarinic receptors (M3) (Homo sapiens, UniProt P20309).
T2 construct: CEREP
As to the kind of experiment: CEREP screen: muscarinic receptor M3. The series is classed as binding. Also on record: dose or concentration left out as unconfirmed. Here is the method:
as §1

Series [3] deals with APP transgenic mice. In words: Morris water maze test in APP mice treated for 90 days. The format is in vivo. As to conditions: 10 mg/kg orally in 25% PEG daily for 3 months (90 days). As to the method: Morris water-maze testing. All mice were tested once in the Morris water maze test at the end of the experiment. Mice were trained in a 1.2 m open field water maze. The pool was filled to a depth of 30 cm with water and maintained at 25° C. The escape platform (10 cm square) was placed 1 cm below the surface of the water. During the trials, the platform was removed from the pool. The cued test was carried out in the pool surrounded with white curtains to hide any extra-maze cues. All animals underwent non-spatial pretraining (NSP) for three consecutive days. These trials were to prepare the animals for the final behavioral test to determine the retention of memory to find the platform. These trials were not recorded (for training purposes only). For the training and learning studies, the curtains were removed to add extra-maze cues (this allows for the identification of animals with swimming impairments). On day 1, the mice were placed on the hidden platform for 20 seconds (trial 1), for trials 2-3 animals were released in the water at a distance of 10 cm from the cued-platform or hidden platform (trial 4) and allowed to swim to the platform. […]
SPI-001 was administered to APP transgenic mice at 10 mg/kg for 3 months to determine the effect upon Aβ peptide and amyloid load. […] Animals were analyzed for behavioral changes associated with drug treatment (FIG. 7). […]

Series [4] concerns Aβ1-42 peptide. In words: Brain and plasma Aβ1-42 peptide levels in APP transgenic mice after single oral administration. The format is in vivo. The source says: (§2) The APP mice (male) used in these experiments were designed by microinjection of the human APP gene (with the Swedish and London mutations) into mouse eggs under the control of the platelet-derived growth factor B (PDGF-B) chain gene promoter. The mice were generated on a C57BL/6 background. Animals were housed in the Medical University of South Carolina Animal Facility under a 12:12 light:dark cycle. Animals were housed in standard non-sterile rodent microisolator cages, with filtered cage tops and housed 4 to a cage. Animals were fed ad libitum and maintained by brother sister mating. Transgenic animals were identified by PCR analysis. The mice generated from this construct develop amyloid deposits starting at 3 months of age. Animals were aged for 3 months and then maintained for 90 days and sacrificed for amyloid quantification.
FIG. 2 illustrates the effect of SPI-001 on brain Aβ1-42 peptide levels when administered at 10 mg/kg orally to the APP transgenic mice. Animals were dosed once with SPI-001 and then examined at 0, 4, 24 hours and 7 days for A[…] peptide levels (Biosource International). […] The plasma levels were opposite to the brain levels.
Animals were dosed once with SPI-001 and then examined at 0, 4, 24, 48 hours and 7 days for A[…] peptide levels. […] The plasma levels were opposite to the brain levels.

The test system of series [5] is MAPKAPK2 pathways. In words: Initial studies: MAPKAPK2 pathways. The format is biochemical.
Series [6] deals with Aβ peptide. In words: Aβ peptide levels in the brain after repetitive administration for 3 months. The series is classed as in vivo. The settings on record: APP transgenic mice; 10 mg/kg orally daily for 3 months; compared to control animals.
Text: as §2
(§3) SPI-001 was administered to APP transgenic mice at 10 mg/kg for 3 months to determine the effect upon Aβ peptide and amyloid load. Animals were administered SPI-001 orally in 25% PEG daily and examined for abnormal pathology. […] Animals were analyzed for behavioral changes associated with drug treatment (FIG. 7). […] FIG. 8 illustrates the plaque load in the brains of control and SPI-001 treated animals.

Series [7] addresses T3, muscarinic receptors (M1) (Homo sapiens, UniProt P11229).
T3 construct: CEREP
T3 sequence (P11229 1-460): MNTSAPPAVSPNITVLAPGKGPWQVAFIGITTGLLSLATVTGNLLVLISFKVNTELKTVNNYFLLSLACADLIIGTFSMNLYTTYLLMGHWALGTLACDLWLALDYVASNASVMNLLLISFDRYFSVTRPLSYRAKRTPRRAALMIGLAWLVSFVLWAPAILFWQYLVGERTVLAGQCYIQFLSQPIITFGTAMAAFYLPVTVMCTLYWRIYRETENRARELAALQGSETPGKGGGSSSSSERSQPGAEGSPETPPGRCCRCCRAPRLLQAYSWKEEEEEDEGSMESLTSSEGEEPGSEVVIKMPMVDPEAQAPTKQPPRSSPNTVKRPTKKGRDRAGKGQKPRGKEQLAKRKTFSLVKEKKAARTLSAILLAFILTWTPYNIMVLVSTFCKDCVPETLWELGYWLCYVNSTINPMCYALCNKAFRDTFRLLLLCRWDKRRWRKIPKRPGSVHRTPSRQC
As to the kind of experiment: CEREP screen: muscarinic receptor M1. Also on record: dose or concentration left out as unconfirmed. The format is binding. Here is the method: as §1

For series [8], the target named is T4, monoamine (5-HT) transporters (Homo sapiens, UniProt P31645).
T4 construct: CEREP
In words: CEREP screen: 5-HT transporter. The format is binding. Details: dose or concentration left out as unconfirmed. Here is the method:
as §1

The target of series [9] is CamK1δ (Homo sapiens, UniProt Q8IU85). As to the kind of experiment: Initial studies: CamK1δ. The series is classed as biochemical.
Series [10] relates to APP transgenic mice. In words: Examination for abnormal pathology after repetitive administration for 3 months. The series is classed as in vivo. The settings on record: 10 mg/kg orally daily for 3 months. As to the method: as §3
Series [11] deals with T5, monoamine (DA) transporters (Homo sapiens, UniProt Q01959).
T5 construct: CEREP
In words: CEREP screen: DA transporter. Also on record: dose or concentration left out as unconfirmed. The series is classed as binding. As to the method:
as §1

The subject of series [12] is Aβ1-42 peptide. In words: Acute administration for 7 days: brain and plasma Aβ1-42 peptide levels. As to conditions: 10 mg/kg for 7 days in 25% PEG 400, at 7 days. The series is classed as in vivo, APP transgenic mice. Here is the method:
Animals were dosed once with SPI-001 and then examined at 7 days for AP peptide levels.

T5 sequence (Q01959 whole entry): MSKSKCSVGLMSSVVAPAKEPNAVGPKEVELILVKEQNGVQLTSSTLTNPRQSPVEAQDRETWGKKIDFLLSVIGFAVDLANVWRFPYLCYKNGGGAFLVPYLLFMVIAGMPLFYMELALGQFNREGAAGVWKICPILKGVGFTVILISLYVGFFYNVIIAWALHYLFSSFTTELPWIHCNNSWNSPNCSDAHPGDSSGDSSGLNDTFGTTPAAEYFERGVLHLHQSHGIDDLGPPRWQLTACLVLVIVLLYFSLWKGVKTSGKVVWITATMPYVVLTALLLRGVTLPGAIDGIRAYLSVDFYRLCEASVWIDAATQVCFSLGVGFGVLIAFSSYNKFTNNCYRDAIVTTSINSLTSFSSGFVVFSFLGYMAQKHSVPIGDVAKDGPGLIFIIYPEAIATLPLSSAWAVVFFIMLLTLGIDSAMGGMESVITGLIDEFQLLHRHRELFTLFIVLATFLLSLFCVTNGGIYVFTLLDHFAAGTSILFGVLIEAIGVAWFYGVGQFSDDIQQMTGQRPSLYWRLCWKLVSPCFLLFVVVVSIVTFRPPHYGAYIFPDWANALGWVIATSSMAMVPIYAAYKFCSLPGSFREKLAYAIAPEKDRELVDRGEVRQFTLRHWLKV
T1 sequence (P23975 whole entry): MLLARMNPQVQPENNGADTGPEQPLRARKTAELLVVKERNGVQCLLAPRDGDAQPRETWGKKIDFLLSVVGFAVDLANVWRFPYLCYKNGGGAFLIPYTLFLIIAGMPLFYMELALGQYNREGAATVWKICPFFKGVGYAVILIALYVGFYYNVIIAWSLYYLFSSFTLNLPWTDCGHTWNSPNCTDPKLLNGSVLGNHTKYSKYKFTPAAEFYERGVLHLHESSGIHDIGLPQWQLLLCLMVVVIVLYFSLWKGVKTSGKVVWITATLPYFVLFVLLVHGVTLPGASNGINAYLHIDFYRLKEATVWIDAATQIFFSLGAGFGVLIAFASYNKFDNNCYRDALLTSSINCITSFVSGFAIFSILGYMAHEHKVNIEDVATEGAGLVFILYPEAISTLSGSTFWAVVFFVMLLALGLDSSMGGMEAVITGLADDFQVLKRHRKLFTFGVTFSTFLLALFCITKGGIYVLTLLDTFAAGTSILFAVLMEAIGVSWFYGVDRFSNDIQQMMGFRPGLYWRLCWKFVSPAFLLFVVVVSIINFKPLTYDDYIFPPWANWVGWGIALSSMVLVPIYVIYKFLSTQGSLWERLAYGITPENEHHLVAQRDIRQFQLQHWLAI
T4 sequence (P31645 whole entry): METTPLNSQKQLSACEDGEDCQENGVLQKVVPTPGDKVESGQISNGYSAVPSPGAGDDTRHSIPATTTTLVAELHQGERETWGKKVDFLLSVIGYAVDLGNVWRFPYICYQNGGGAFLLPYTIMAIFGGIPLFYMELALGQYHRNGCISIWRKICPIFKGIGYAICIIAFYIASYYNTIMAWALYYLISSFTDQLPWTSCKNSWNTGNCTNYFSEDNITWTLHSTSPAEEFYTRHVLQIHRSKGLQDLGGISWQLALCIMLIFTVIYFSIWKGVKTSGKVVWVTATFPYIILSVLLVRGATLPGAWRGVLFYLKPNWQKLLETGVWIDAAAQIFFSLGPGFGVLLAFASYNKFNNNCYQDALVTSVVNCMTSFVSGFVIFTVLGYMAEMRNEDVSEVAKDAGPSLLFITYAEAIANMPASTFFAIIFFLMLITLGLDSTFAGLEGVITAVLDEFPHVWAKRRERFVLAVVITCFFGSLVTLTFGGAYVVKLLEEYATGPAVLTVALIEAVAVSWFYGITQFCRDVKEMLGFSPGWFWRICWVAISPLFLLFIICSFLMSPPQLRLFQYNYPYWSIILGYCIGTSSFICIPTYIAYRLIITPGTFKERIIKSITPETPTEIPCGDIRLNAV
T2 sequence (P20309 whole entry): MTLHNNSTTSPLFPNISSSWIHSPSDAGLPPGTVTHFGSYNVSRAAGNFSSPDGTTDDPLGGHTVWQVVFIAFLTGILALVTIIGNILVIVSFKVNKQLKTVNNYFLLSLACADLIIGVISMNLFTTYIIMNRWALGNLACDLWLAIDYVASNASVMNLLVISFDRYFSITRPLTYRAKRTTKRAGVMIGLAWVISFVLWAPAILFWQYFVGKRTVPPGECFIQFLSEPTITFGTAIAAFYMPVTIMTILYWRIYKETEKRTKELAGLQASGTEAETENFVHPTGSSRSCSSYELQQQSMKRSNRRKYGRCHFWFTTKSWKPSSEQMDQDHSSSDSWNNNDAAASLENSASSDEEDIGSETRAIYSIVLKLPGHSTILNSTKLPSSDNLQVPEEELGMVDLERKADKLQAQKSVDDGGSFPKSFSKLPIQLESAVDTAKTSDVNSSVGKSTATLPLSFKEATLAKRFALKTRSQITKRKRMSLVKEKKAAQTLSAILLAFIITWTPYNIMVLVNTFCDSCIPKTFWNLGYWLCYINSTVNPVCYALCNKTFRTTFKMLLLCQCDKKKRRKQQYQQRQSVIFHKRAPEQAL
Chain of CamK1δ (Q8IU85 whole entry): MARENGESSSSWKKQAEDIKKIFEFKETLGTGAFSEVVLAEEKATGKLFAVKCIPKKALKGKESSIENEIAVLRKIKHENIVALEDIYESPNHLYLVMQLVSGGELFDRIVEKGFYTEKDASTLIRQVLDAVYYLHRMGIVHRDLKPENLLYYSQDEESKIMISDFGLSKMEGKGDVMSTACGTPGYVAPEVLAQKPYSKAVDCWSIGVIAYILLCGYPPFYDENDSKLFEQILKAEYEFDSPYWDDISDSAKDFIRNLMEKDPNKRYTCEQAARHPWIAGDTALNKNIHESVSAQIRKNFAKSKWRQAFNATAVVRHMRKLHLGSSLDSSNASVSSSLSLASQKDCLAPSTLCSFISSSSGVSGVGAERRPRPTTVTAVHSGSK

For the molecule `CCCCCCCCCCC[C@H]1CCC[C@H](C)N1` (relative stereo) [SPI-001, trans-2-methyl 6-n-undecylpiperidine], the inhibition in series [1], in [2], in series [7], in series [8] and in series [11] was approximately 90% throughout. Moreover, the “behavior in the Morris Water Maze” value in [3] is given as “improvement in behavior”. The “brain Aβ1-42 peptide levels” value was “decreased” in [4] (single 10 mg/kg oral in 25% PEG 400, 4 hr); “continued to decrease” in series [4] (single 10 mg/kg oral, 24 hours); “returned to control levels” in [4] (single 10 mg/kg oral, 48 hours); “returned to control levels” in series [4] (single 10 mg/kg oral, 7 days); “decreased” in series [12] (compared to control animals given 25% PEG only). Moreover, the “plasma Aβ1-42 peptide levels” value was “increased” in series [4] (single 10 mg/kg oral, 4 hr); “continued to increase” in series [4] (single 10 mg/kg oral, 24 hours); “returned to control levels” in series [4] (single 10 mg/kg oral, 48 hours); “returned to control levels” in series [4] (single 10 mg/kg oral, 7 days); “increased” in [12] (compared to control levels). In series [5], the “effect on MAPKAPK2 pathways” value was “activating”. In addition, the Aβ peptide levels entry in series [6] is reported as “significantly reduced”. The “effect on CamK1δ” value in series [9] was “inhibits”. In addition, the “systemic pathological features (liver, kidney, heart, lungs, intestine)” value in [10] is “did not show any signs of systemic pathological features”.
